Measurements published in patent US8158606B2, “β-L-2′-deoxynucleosides for the treatment of resistant HBV strains and combination therapies” (priority 2002, dated 2012).
≈ marks a conversion by molar mass, not a printed value. Where “and” joins values, the source holds several entries; their conditions need not be identical. Equal entries are not always repeated. Structures can show the parent of a compound that is named as a salt. Where two headings read alike, the source gives them in different places.

Tests used:
[1] = Log P study, octanol-1 / phosphate buffer; settings: for log P (octanol/water): octanol-1 / 0.02 M phosphate buffer pH 7.2; for P (B/A): octanol-1 (B) / 0.02 M phosphate buffer pH 7.2 (A), Study 1 and Study 2
Experimental: To 1 mL of this solution, 1 mL of octanol-1 (B) saturated with 0.02 M phosphate buffer solution (A) was added. The resultant mixture was shaken and centrifuged; three samples from each phase was collected and analyzed by HPLC, as shown in Table 10.
The solution was then saturated with octanol-1 (B). To 1 mL of this solution, 1 mL of octanol-1 (B) saturated with 0.02 M phosphate buffer solution (A) was added. The resultant mixture was shaken and centrifuged; three samples from each phase was collected and analyzed by HPLC, as shown in Table 11.

[2] = Solubility study in water (HPLC calibration)
[3] = assay type: physicochemical; settings: octanol-1 (B) / MilliQ water pH 6.5 (A′), Study 1 and Study 2, listed as L-dC-5′-valinyl ester hydrochloride
Experimental: (§1) To 1 mL of this solution, 1 mL of octanol-1 (B) saturated with MilliQ water (A′) was added.
as §1

[4] = Stability study in buffer at pH 7.4, 7.20, 4.5 and 1.2; assay type: physicochemical; settings: pH 1.2, no decomposition products detected for up to 23 hours
[5] = test system: cytosolic extracts of HepG2 cells; experiment: Steady state phosphorylation kinetics in cytosolic extracts; assay type: biochemical, human; settings: cytosolic extracts of HepG2 cells as enzyme source
[6] = target: hepatitis B virus deoxyribonucleic acid (DNA) polymerase (Hepatitis B virus genotype D subtype ayw, UniProt P03156); experiment: biochemical
hepatitis B virus deoxyribonucleic acid (DNA) polymerase, sequence (P03156 whole entry): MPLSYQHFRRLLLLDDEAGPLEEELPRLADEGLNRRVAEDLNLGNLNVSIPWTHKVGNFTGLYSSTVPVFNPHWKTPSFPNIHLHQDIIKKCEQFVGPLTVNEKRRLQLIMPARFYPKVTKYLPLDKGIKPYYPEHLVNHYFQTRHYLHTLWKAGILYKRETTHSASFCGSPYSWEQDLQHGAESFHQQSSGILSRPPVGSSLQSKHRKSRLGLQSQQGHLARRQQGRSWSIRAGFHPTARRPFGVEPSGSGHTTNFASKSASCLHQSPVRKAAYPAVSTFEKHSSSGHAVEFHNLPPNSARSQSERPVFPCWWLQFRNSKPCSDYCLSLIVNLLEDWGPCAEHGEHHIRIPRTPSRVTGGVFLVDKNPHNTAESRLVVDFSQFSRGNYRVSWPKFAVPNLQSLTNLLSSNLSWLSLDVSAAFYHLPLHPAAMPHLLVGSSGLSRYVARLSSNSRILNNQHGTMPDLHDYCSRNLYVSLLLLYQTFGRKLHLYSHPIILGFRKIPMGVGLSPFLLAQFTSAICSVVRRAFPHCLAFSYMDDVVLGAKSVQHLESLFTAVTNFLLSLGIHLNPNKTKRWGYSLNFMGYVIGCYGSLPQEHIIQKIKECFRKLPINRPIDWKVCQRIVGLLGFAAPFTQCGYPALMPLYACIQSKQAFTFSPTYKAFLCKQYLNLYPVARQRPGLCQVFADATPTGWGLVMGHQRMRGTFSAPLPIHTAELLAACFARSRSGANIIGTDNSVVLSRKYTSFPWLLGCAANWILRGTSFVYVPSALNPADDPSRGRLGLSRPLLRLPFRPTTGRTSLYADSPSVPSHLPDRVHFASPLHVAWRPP

[7] = test system: L515M/M552I mutant HBV, cell line MI4; experiment: Antiviral testing in stable HepG2 cell lines, EPA of intracellular nucleocapsids; assay type: cell-based, hepatitis B virus
Experimental: (§2) Recombinant DNA constructs corresponding to these lamivudine-resistant mutants were created by site directed mutagenesis. The test system comprised stable cell lines harboring each of the transfected mutant genomes, as well as a wild-type control HBV genome. The antiviral activity of LdT (telbivudine) and LdC, together with the control drugs lamivudine and PMEA, was determined against the mutant and wild-type HBV genomes in the respective test cell lines.
(§3) Endogenous Polymerase Assay (EPA) of cell lysate: Cells were grown in 12-well collagen plates to 100% confluency for 3-4 days and cytosolic lysates were prepared in 1 ml of 50 mM Tris-HCl pH 7.4, 150 mM NaCl, 5 mM MgCl2, 0.2% NP-40. EPAs were essentially performed as described (Seifer et al., 1998). […] The immobilized capsids were then washed, endogenous polymerase reactions were initiated in 50 ul reaction volume containing 50 mM Tris-HCl pH7.4, 75 mM NH4Cl, 1 mM EDTA, 20 mM MgCl2, 0.1 mM β-ME, 0.5% NP-40, 100 μM cold dGTP, TTP, dCTP, and 50 nM ^33P-dATP (Perkin Elmer Life Sciences Cat# NEG 612H), and incubated overnight at 37° C. Following digestion with 1 mg/ml of Proteinase K (Roche, Cat#1373196) for 1 h at 37° C., ^33P-labeled HBV DNA was liberated via phenol/chloroform extraction The nucleic acids were finally precipitated with equal volumes 5M NH4-acetate and 2.5 volumes 100% EtOH and separated on a 1% native agarose gel in Tris-borate buffer. Gels were either fixed with 7% TCA, then dried, or blotted onto positively charged nylon membrane (Pall Biodyne Plus Cat#60406) overnight at room temperature via capillary transfer in 0.4 N NaOH. Dried gels/membranes were exposed to a phosphoimager screen (Molecular Dynamics) overnight at room temperature, then scanned (Storm 860, Molecular Dynamics) and quantitated with ImageQuant (Molecular Dynamics) software.
(§4) 12-well Biocoat collagen I plates (Becton Dickinson Cat#35-4500) are seeded with cells at a density of 0.5-1×10^6 cells per well in 2 ml DMEM containing 5% FBS, 2 mM L-glutamine, 100 I.U. penicillin/100 μg/mL streptomycin, and 0.5 mg/mL G-418.
(§5) Drug dilutions are prepared freshly in 100% DMSO as 200× stocks. For each experiment, 4 aliquots of each drug dilution series are stored at −20° C. until used. Once cells reach confluency, drug treatment is initiated by adding 10 μL of drug dilution into 2 ml of fresh DMEM+5% FBS. […] The no-drug control well receives only 10 μl of DMSO. Cells are treated every other day with 2 mL of fresh drug/medium for a total of 8 days. Cell lysates are then collected on day 10 as described below:
(§6) Aspirate media and rinse cell monolayer carefully once with 1 mL of PBS.
(§7) Add 1 ml of lysis buffer (50 mM Tris-HCl pH 7.5/150 mM NaCl/5 mM MgCl2/0.2% NP-40). Store on ice for 30 min to 4 h.
(§8) Harvest lysed cells. Transfer to 1.5 ml microfuge tubes.
(§9) Clarify lysate by spinning for 5 min at RT and 14,000 rpm.
(§10) Transfer clarified lysate to fresh tubes. Snap-freeze on dry-ice and store at −80° C. until ready to continue with endogenous polymerase assays essentially as described above.
(§11) EC50's were generated from the phosphorimager data by curve fitting using Xlfit software.

[8] = test system: L515M/M552V mutant HBV, cell line MV5/B3; experiment: as above; assay type: cell-based, hepatitis B virus
Experimental: as §2, §3, §4, §5, §6, §7, §8, §9, §10, §11

[9] = test system: M552I mutant HBV, cell line I2; experiment: as above; assay type: cell-based, hepatitis B virus
Experimental: as §2, §3, §4, §5, §6, §7, §8, §9, §10, §11

[10] = test system: M552V mutant HBV, cell line V1/C9; experiment: as above; assay type: cell-based, hepatitis B virus; settings: for EC50: cell line V1/C9, mean ± SD of three to four experiments
Experimental: as §2, §3, §4, §5, §6, §7, §8, §9, §10, §11

[11] = test system: wild-type HBV (ayw), cell line WT3/C1; experiment: as above; assay type: cell-based, hepatitis B virus; settings: WT (ayw); for EC50: cell line WT3/C1, mean ± SD of three to four experiments
Experimental: as §2, §3, §4, §5, §6, §7, §8, §9, §10, §11

[12] = test system: hepatitis B virus; settings: clinical studies; cited from earlier work
[13] = listed as 3′-valinyl ester hydrochloride of β-L-dC
[14] = Hepatitis B virus, HepG2, L515M/M552I, cell line MI4, mean ± SD of three to four experiments, read-out: EC50
[15] = Hepatitis B virus, HepG2, L515M/M552V, cell line MV5/B3, mean ± SD of three to four experiments, read-out: EC50
[16] = Hepatitis B virus, HepG2, M552I, cell line I2, mean ± SD of three to four experiments, read-out: EC50
[17] = Hepatitis B virus, HepG2, M552V

Compound: CC(=O)OC[C@@H]1O[C@H](n2ccc(N)nc2=O)C[C@H]1OC(C)=O [3′5′-diacetyl-L-dC, 3′,5′-Di-O-acetyl-2′-deoxy-β-L-cytidine]
- log P (octanol/water) [1]: −0.74

Compound: CC(C)[C@H](N)C(=O)O[C@@H]1C[C@@H](n2ccc(N)nc2=O)O[C@H]1CO.Cl [3′-val-L-dC, 3′-valinyl ester hydrochloride of β-L-dC]
- P (B/A) ([1]; listed as L-dC-3′-valine ester hydrochloride): 0.0296 and 0.0293
- log P (octanol/water) [1]: −1.53
- Solubility (g/L) [2]: >408 g/L
- Solubility (g/L) [2, 13]: > 408 g/L
- Solubility (mol/L) [2, 13]: greater than 1.023 mol/L

Compound: CC(C)[C@H](N)C(=O)OC[C@@H]1O[C@H](n2ccc(N)nc2=O)C[C@H]1O [5′-val-L-dC, 5′-L-valine ester of 2′-deoxy-β-L-cytidine hydrochloride]
- P′ (B/A′) [3]: 1.54 × 10^−3 and 2.04 × 10^−3
- stability in words [4]: fully stable

Compound: Nc1ccn([C@H]2C[C@H](O)[C@@H](CO)O2)c(=O)n1 [D-dC, D-Deoxycytidine]
- P (B/A) [1]: 0.039
- log P (octanol/water) [1]: −1.41
- maximum initial velocity (Vmax) of phosphorylation [5]: 2.15 nmol/min/mg protein
- Solubility (g/L) [2]: 272 g/L (≈ 1200 mM)
- Solubility (mol/L) [2]: 1.03 mol/L (≈ 234 mg/mL)
- Concentration (mol/L) of single samples ([2]; 1st-3rd HPLC sample of the saturated (D-dC) or most concentrated available solution): 1.07 mol/L and 1.08 mol/L and 0.96 mol/L

Compound: O=c1ccn([C@@H]2C[C@@H](O)[C@H](COP(=O)(O)OP(=O)(O)OP(=O)(O)O)O2)c(=O)[nH]1 [L-dU-TP, β-L-2′-deoxyuridine 5′-triphosphate]
- IC50 [6]: 5.26 µM

Compound: Nc1ccn([C@@H]2C[C@@H](O)[C@H](CO)O2)c(=O)n1 [LdC-HCl]
- EC50 ([7]; L515M/M552I, cell line MI4, mean ± SD of three to four experiments, read-out: EC50): ≥ 1000 µM
- EC50 ([8]; L515M/M552V, cell line MV5/B3, mean ± SD of three to four experiments, read-out: EC50): 777 ± 99 µM
- EC50 ([9]; M552I, cell line I2, mean ± SD of three to four experiments, read-out: EC50): ≥ 1000 µM
- EC50 ([10]; M552V): 0.36 ± 0.13 µM
- EC50 [11]: 0.18 ± 0.09 µM

Compound: Nc1ncnc2c1ncn2CCOCP(=O)(O)O [PMEA, 9-{2-(phosphonomethoxy)ethyl}adenine, reference compound]
- EC50 [7, 14]: 1.49 ± 0.3 µM
- activity against the mutant, in words ([7]; L515M/M552I double mutant): retained significant activity
- X Resist. (fold resistance) ([7]; L515M/M552I, EC50 mutant divided by EC50 wild-type): 3.6 ± 1.1
- EC50 [8, 15]: 0.62 ± 0.3 µM
- activity against the mutant, in words ([8]; L515M/M552V double mutant): retained significant activity
- X Resist. (fold resistance) ([8]; L515M/M552V, EC50 mutant divided by EC50 wild-type): 3.3 ± 2.9
- EC50 [9, 16]: 1.6 ± 1.12 µM
- activity against the mutant, in words ([9]; M552I single mutant): retained significant activity
- X Resist. (fold resistance) ([9]; M552I, EC50 mutant divided by EC50 wild-type): 4.6 ± 3.0
- EC50 [10, 17]: 1.02 ± 0.22 µM
- activity against the mutant, in words ([10]; M552V single mutant): retained significant activity
- X Resist. (fold resistance) ([10]; M552V, EC50 mutant divided by EC50 wild-type): 3.8 ± 2.3
- EC50 ([11]; Hepatitis B virus, HepG2): 0.33 ± 0.17 µM
- X Resist. (fold resistance) ([11]; EC50 mutant divided by EC50 wild-type): 1

Compound: Cc1cn([C@H]2C[C@H](O)[C@@H](CO)O2)c(=O)[nH]c1=O [Thd, D-thymidine]
- maximum initial velocity (Vmax) of phosphorylation [5]: 1.26 nmol/min/mg protein

Compound: Nc1ccn([C@@H]2CS[C@H](CO)O2)c(=O)n1 [lamivudine, (−)-enantiomer of BCH-189 (2′,3′-dideoxy-3′-thiacytidine), reference compound]
- EC50 ([7]; Hepatitis B virus, HepG2, L515M/M552I double mutant): > 1000 µM
- EC50 [7, 14]: ≥ 1000 µM
- EC50 ([8]; Hepatitis B virus, HepG2, L515M/M552V double mutant): > 1000 µM
- EC50 [8, 15]: ≥ 1000 µM
- EC50 ([9]; Hepatitis B virus, HepG2, M552I single mutant): > 1000 µM
- EC50 [9, 16]: ≥ 1000 µM
- EC50 [10, 17]: 0.96 ± 0.36 µM
- EC50 ([11]; Hepatitis B virus, HepG2): 0.05 ± 0.03 µM

Compound: Interferon alpha-2b
- patients with no evidence of the hepatitis B virus in their blood over time [12]: 45%
